Literature values in patent US10711094B2, “Conjugated polymer nanoparticles, methods of using, and methods of making” (KING ABDULLAH UNIVERSITY OF SCIENCE AND TECHNOLOGY, priority 2015, dated 2020).

Conditions: in ethanol

## O=C(O)c1ccccc1C1=c2cc3c4c(c2Oc2c1cc1c5c2CCCN5CCC1)CCC[N+]=4CCC3.[Cl-] [Rhodamine 101]
  fluorescence quantum yield (Φfl) of reference dye: 96%
